Assay: The compound was tested for the inhibition of alanine racemase from Pseudomonas aeruginosa

CCC(=N)P(=O)(O)O
Ki: 8.5 mM
